Test results reported in US6646009B2, “N-(aryl)-2-arylethenesulfonamides and therapeutic uses thereof” (Temple University — Of Commonwealth System of Higher …, priority 2001, dated 2003).

What was measured:
[1] = tested on: estrogen-unresponsive breast cell line BT-20; assay: GI50 growth inhibition, BT-20; type: cell-based
Method: (§1) The effect of the N-(aryl)-2-arylethenesulfonamides on normal fibroblasts and on tumor cells was determined by the assay described by Latham et al, Oncogene 12:827-837 (1996). Normal diploid lung human fibroblasts (HFL-1) or tumor cells (prostate, colorectal, breast, glial, pancreatic ovarian or leukemic) were plated in 6-well dishes at a cell density of 1.0×10^5 cells per 35-mm^2 well. The plated cells were treated 24 hours later with various concentrations of N-(aryl)-2-arylethenesulfonamide dissolved in dimethyl sulfoxide (DMSO). The total number of viable cells was determined 96 hours later by trypsinizing the wells and counting the number of viable cells, as determined by trypan blue exclusion, using a hemacytometer. Each compound tested (Exs. 1-17) inhibited cell proliferation when tested at a concentration of 30 micromolar. […] Normal HFL cells were treated with the same compounds under the same conditions of concentration and time.
(§2) A dose response curve was plotted for the tumor growth inhibitory effect of (E)-4-methoxystyryl-N-4-fluorophenyl sulfonamide on the estrogen-unresponsive breast cell line BT-20 (FIG. 1). The GI50 (the concentration of drug resulting in 50% net loss of growth inhibition) was determined as 10 μM. […] The (E)-4-methoxystyryl-N-4-fluorophenyl sulfonamide GI50 for the same compound against the cell lines listed in Table 7 was determined in the same manner.

DU145 = assay: GI50 growth inhibition, DU145; type: cell-based
Method: as §1, §2

H157 = assay: GI50 growth inhibition, H157; type: cell-based; details: result in words
Method: The effect of the N-(aryl)-2-arylethenesulfonamides on normal fibroblasts and on tumor cells was determined by the assay described by Latham et al, Oncogene 12:827-837 (1996). Normal diploid lung human fibroblasts (HFL-1) or tumor cells (prostate, colorectal, breast, glial, pancreatic ovarian or leukemic) were plated in 6-well dishes at a cell density of 1.0×10^5 cells per 35-mm^2 well. The plated cells were treated 24 hours later with various concentrations of N-(aryl)-2-arylethenesulfonamide dissolved in dimethyl sulfoxide (DMSO). The total number of viable cells was determined 96 hours later by trypsinizing the wells and counting the number of viable cells, as determined by trypan blue exclusion, using a hemacytometer. Each compound tested (Exs. 1-17) inhibited cell proliferation when tested at a concentration of 30 micromolar. […]
as §2, with “1).” for “1). The GI50 (the concentration of drug resulting in 50% net loss of growth inhibition) was determined as 10 μM.”
The GI50 of (E)-4-methoxystyryl-N-3-fluoro-4-methoxyphenyl sulfonamide was determined for the following cell lines: BT20, DU145, H157 and DLD-1.

DLD-1 = assay: GI50 growth inhibition, DLD-1; type: cell-based
Method: as §1, §2

HCT-116 = assay: GI50 growth inhibition, HCT-116; type: cell-based; details: Homo sapiens; HCT-116, Colo-rectal
Method: as §1, §2

HFL-1 cells = assay: Induction of apoptosis: PARP cleavage Western blot, HFL-1; type: cell-based, human; details: 20 μM, 96 hours
From the text: (§3) The caspases and the ICE-family proteases are cysteine proteases which are activated during apoptosis (Patel et al., FASEB 10:587-597, 1996). The cleavage of poly(ADP-ribose) polymerase (PARP), which is a target of caspase-3, apopain, and several other activated proteases, is a widely used and accepted marker for apoptosis (Nicholson et al., Nature 376(6533):37-43, 1995; Lippke et al., J. Biol. Chemistry 271:1825, 1996). For this assay, BT20 cells, an estrogen receptor negative breast carcinoma, and HFL-1 cells, normal lung fibroblasts, were treated with either (E)-4-methoxystyryl-N-4-fluorophenyl sulfonamide at a final concentration of 20 μM or dimethyl sulfoxide (DMSO) for 96 hours. The cells were then lysed in RIPA buffer and 100 μg of total cellular protein from each sample was resolved on a 10% SDS-polyacrylamide gel. The proteins were then Western blotted onto PROTRAN filter paper (S/S) and the filter was then probed with antibody (Boehringer Mannheim) specific for PARP. This antibody recognizes both the 116 kDa full length PARP and the 83 kDa cleaved product. […] The BT20 cells treated with DMSO for the same amount of time also had no activation of the apoptotic pathway.

[2] = tested on: normal fibroblast line HFL-1; assay: GI50 growth inhibition, HFL-1; type: cell-based; details: Homo sapiens, HFL1; HFL-1, Normal diploid lung
Method: as §1, §2

SK-br-3 = assay: GI50 growth inhibition, SK-br-3; type: cell-based; details: Homo sapiens; SK-br-3, Breast
Method: as §1, §2

SK-ov-3 = assay: GI50 growth inhibition, SK-ov-3; type: cell-based; details: Homo sapiens; SK-ov-3, Ovarian
Method: as §1, §2

PC-3 = assay: GI50 growth inhibition, PC-3; type: cell-based; details: Homo sapiens; PC-3, Prostate
Method: as §1, §2

U87 = assay: GI50 growth inhibition, U87; type: cell-based; details: Homo sapiens, U-87 MG; U87, Glioblastoma
Method: as §1, §2

BT20 cells = assay: Induction of apoptosis: PARP cleavage Western blot, BT20; type: cell-based; details: 20 μM, 96 hours
From the text: as §3

LNCAP = assay: GI50 growth inhibition, LNCAP; type: cell-based; details: Homo sapiens, Prostate
Method: as §1, §2

COLO-320 = assay: GI50 growth inhibition, COLO-320; type: cell-based; details: Homo sapiens; COLO-320, Colo-rectal
Method: as §1, §2

CEM = assay: GI50 growth inhibition, CEM; type: cell-based; details: Homo sapiens, CCRF-CEM, Leukemic
Method: as §1, §2

MIA-PaCa-2 = assay: GI50 growth inhibition, MIA-PaCa-2; type: cell-based; details: Homo sapiens; MIA-PaCa-2, Pancreatic
Method: as §1, §2

Compound	GI50 compared with (E)-4-methoxystyryl-N-4-fluorophenyl sulfonamide ([1]; BT20, result in words)	GI50 compared with (E)-4-methoxystyryl-N-4-fluorophenyl sulfonamide (DU145; DU145, result in words)	GI50 compared with (E)-4-methoxystyryl-N-4-fluorophenyl sulfonamide (H157)	GI50 compared with (E)-4-methoxystyryl-N-4-fluorophenyl sulfonamide (DLD-1; DLD-1, result in words)	GI50 (HCT-116) [µM]	GI50 ([1]; Homo sapiens, BT-20 (BT2O), Breast) [µM]	GI50 (DU145; Homo sapiens, DU-145, DU145, Prostate) [µM]	PARP cleavage (83 kDa product, marker for apoptosis) (HFL-1 cells)	GI50 [2] [µM]	GI50 (SK-br-3) [µM]	GI50 (SK-ov-3) [µM]	GI50 (PC-3) [µM]	GI50 (U87) [µM]	PARP cleavage (83 kDa product, marker for apoptosis) (BT20 cells)	GI50 (LNCAP) [µM]	GI50 (COLO-320) [µM]	GI50 (CEM) [µM]	GI50 (DLD-1; Homo sapiens, DLD-1, Colo-rectal) [µM]	GI50 (MIA-PaCa-2) [µM]
COc1ccc(/C=C/S(=O)(=O)Nc2ccc(OC)c(F)c2)cc1 [Example 5, (E)-4-methoxystyryl-N-3-fluoro4-methoxyphenyl sulfonamide]	in essential agreement	in essential agreement	in essential agreement	in essential agreement															
COc1ccc(/C=C/S(=O)(=O)Nc2ccc(F)cc2)cc1 [Example 4, (E)-4-methoxystyryl-N-4-fluorophenyl sulfonamide]					20	10	10	no cleavage of the full length PARP	50	30	15	20	20	presence of the 83 kDa PARP cleavage product	20	5	30	15	7
